In PubChem BioAssay (NCI):
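Briefly, cells in 96-well plates were exposed to five compound concentrations for 48 h, and endpoints were estimated by linear interpolation. GI50 = concentration required for 50% inhibition of growth. TGI: concentration producing complete growth inhibition.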

Assays:
Assay in all cases: DTP human tumour cell line panel, 48 h; in the data active = GI50 below about 0.43 µM; inactive = the rest
[1] = tested on: SF-268 CNS
[2] = tested on: KM12 colon
[3] = tested on: MALME-3M melanoma
[4] = tested on: PC-3 prostate
[5] = tested on: COLO 205 colon
[6] = tested on: HT29 colon
[7] = tested on: NCI-H460 lung
[8] = tested on: SK-MEL-28 melanoma
[9] = tested on: MOLT-4 leukemia
[10] = tested on: NCI-H226 lung

COc1ccc(NC(=O)c2cccc(C3CCc4c(cc(OC)c(OC)c4OC)O3)c2)cc1 (stereo not drawn)
> 100 µM: TGI [1] | TGI [2] | TGI [3] | TGI [4] | TGI [6] | TGI [7] | TGI [8]
inactive: GI50 [1] 5.13 µM | GI50 [2] 3.49 µM | GI50 [3] 2.69 µM | GI50 [4] 1.57 µM | GI50 [5] 2.39 µM | GI50 [6] 3.17 µM | GI50 [7] 3.33 µM | GI50 [8] 4.12 µM
6.67 µM: TGI [5]

CCOC(=O)c1ccc(NC(=O)c2cccc(NC3=C(Cl)C(=O)N(Cc4ccccc4)C3=O)c2)cc1
> 100 µM: TGI [1] | TGI [2] | TGI [4] | TGI [5] | TGI [6] | TGI [10] | TGI [7] | TGI [8]
99.2 µM: TGI [9]
inactive: GI50 [1] 42.3 µM | GI50 [2] > 100 µM | GI50 [4] > 100 µM | GI50 [5] > 100 µM | GI50 [9] 28.1 µM | GI50 [6] > 100 µM | GI50 [10] > 100 µM | GI50 [7] > 100 µM | GI50 [8] > 100 µM

CC[P+]1(c2ccccc2)CCCCC1
> 100 µM: TGI [1] | TGI [2] | TGI [3] | TGI [5] | TGI [9] | TGI [6] | TGI [10] | TGI [7] | TGI [8]

FC(F)(F)c1nc(Br)[nH]c1C(F)(F)F
> 100 µM: TGI [1] | TGI [2] | TGI [3] | TGI [5] | TGI [9] | TGI [6] | TGI [10] | TGI [7] | TGI [8]

CNC(=O)NCCN1N=C(C)/C(=C\c2ccccc2)CC1=O
> 100 µM: TGI [1] | TGI [2] | TGI [3] | TGI [9] | TGI [6] | TGI [10] | TGI [7] | TGI [8]

CCc1ccccc1NC(=O)C(=O)C(C#N)c1c(Cl)cccc1Cl (stereo not drawn)
> 100 µM: TGI [1] | TGI [2] | TGI [3] | TGI [9] | TGI [6] | TGI [10] | TGI [8]

Cc1ccc(C2C3Cc4ccccc4C3=NN2c2ccc(S(=O)(=O)NC(=O)Nc3ccccc3)cc2)cc1 (stereo not drawn)
53.3 µM: TGI [5]
> 100 µM: TGI [6]
52.5 µM: TGI [8]
26.3 µM: TGI [4]
55 µM: TGI [1]
49.2 µM: TGI [10]
70.1 µM: TGI [7]
43.2 µM: TGI [2]
34.4 µM: TGI [9]
inactive: GI50 [1] 17.5 µM | GI50 [2] 17.3 µM | GI50 [4] 13.5 µM | GI50 [5] 18.6 µM | GI50 [9] 8.88 µM | GI50 [6] 24.3 µM | GI50 [10] 15.9 µM | GI50 [7] 19.3 µM | GI50 [8] 22.6 µM

CC[Si](CC)(CC)OC1[C@@H](O[Si](CC)(CC)CC)[C@@H](CNC(=O)NC)O[C@H]1n1cnc2c(NC(=O)Nc3ccccc3)ncnc21 (stereo partly drawn)
3.62 µM: TGI [5]
6.61 µM: TGI [7]
6.67 µM: TGI [3]
9.5 µM: TGI [2]
> 100 µM: TGI [1] | TGI [10] | TGI [8]
inactive: GI50 [1] 4.67 µM | GI50 [2] 3.26 µM | GI50 [3] 2.39 µM | GI50 [5] 2.09 µM | GI50 [6] 2.4 µM | GI50 [10] 5.11 µM | GI50 [7] 2.48 µM | GI50 [8] 4.93 µM
6.13 µM: TGI [6]

N#CC(C#N)=C1CCC2C(=C(C#N)C#N)CCC12 (stereo not drawn)
> 100 µM: TGI [1] | TGI [2] | TGI [3] | TGI [5] | TGI [9] | TGI [6] | TGI [10] | TGI [7]

Cc1ccc(NC(=O)CCC(=O)C2Cc3ccccc3C2=O)cc1C (stereo not drawn)
> 100 µM: TGI [1] | TGI [2] | TGI [3] | TGI [5] | TGI [9] | TGI [6] | TGI [10] | TGI [7] | TGI [8]

CC(C)(C)OC1=C(OC(C)(C)C)C(O)(c2ccc(Cl)cc2)C1=O (stereo not drawn)
> 100 µM: TGI [1] | TGI [2] | TGI [3] | TGI [5] | TGI [9] | TGI [6] | TGI [7] | TGI [8]

CCOC(=O)c1cc2c(n1Cc1cc(OC)cc(OC)c1)-c1oncc1CC2
inactive: GI50 [1] 3.18 µM | GI50 [9] 0.525 µM | GI50 [10] 2.75 µM
> 37.8 µM: TGI [7]
0.616 µM: TGI [5]
> 59.5 µM: TGI [2]
active: GI50 [2] 0.0816 µM | GI50 [4] 0.383 µM | GI50 [5] 0.182 µM | GI50 [6] 0.073 µM | GI50 [7] 0.139 µM | GI50 [8] 0.25 µM
> 100 µM: TGI [1] | TGI [4] | TGI [9] | TGI [6] | TGI [10] | TGI [8]

O=C1CCc2ccc(O)c(c2)Oc2ccc(cc2)[C@@H]2O[C@@H]2CO1
62.1 µM: TGI [3]
> 100 µM: TGI [2] | TGI [5] | TGI [9] | TGI [6] | TGI [10] | TGI [8]

O=C(O)CCSC(=O)Nc1ccccc1
> 100 µM: TGI [1] | TGI [2] | TGI [5] | TGI [9] | TGI [6] | TGI [10] | TGI [7] | TGI [8]

C=C1C(O)C2CC(C)(C)C(=O)C2=C(CC(C)C)C12CC2 (stereo not drawn)
> 100 µM: TGI [1] | TGI [2] | TGI [3] | TGI [4] | TGI [5] | TGI [9] | TGI [6] | TGI [7] | TGI [8]
inactive: GI50 [1] > 100 µM | GI50 [2] > 100 µM | GI50 [3] > 100 µM | GI50 [4] > 100 µM | GI50 [5] > 100 µM | GI50 [9] 72 µM | GI50 [6] > 100 µM | GI50 [7] > 100 µM | GI50 [8] > 100 µM

CN(C)CCNC(=O)c1cccc2c1nc(-c1ccncc1)c1ccccc12
> 100 µM: TGI [9]
19.4 µM: TGI [6]
19.7 µM: TGI [1]
17.6 µM: TGI [8]
25.6 µM: TGI [2]
9.66 µM: TGI [5]
3.05 µM: TGI [7]
10.5 µM: TGI [10]

CCOC(=O)CCn1cnc(N)n1
> 100 µM: TGI [2] | TGI [3] | TGI [5] | TGI [9] | TGI [6] | TGI [10] | TGI [7] | TGI [8]

C=C1C(C(=O)O)C1C(=O)O (stereo not drawn)
> 100 µM: TGI [1] | TGI [2] | TGI [3] | TGI [9] | TGI [6] | TGI [10] | TGI [7] | TGI [8]

CC(=O)O[C@H]1CC[C@]2(C)C3C(=O)C[C@]4(C)[C@@H](C(C)CCC(=O)O)CC[C@@]4(C)[C@@H]3CC[C@H]2C1(C)C (stereo partly drawn)
inactive: GI50 [1] 21.1 µM | GI50 [2] 13.9 µM | GI50 [4] 18.3 µM | GI50 [5] 20.9 µM | GI50 [9] > 50 µM | GI50 [6] 18.6 µM | GI50 [10] > 50 µM | GI50 [7] 14.3 µM | GI50 [8] 28.6 µM
> 50 µM: TGI [1] | TGI [4] | TGI [5] | TGI [9] | TGI [6] | TGI [10] | TGI [7] | TGI [8]
38.4 µM: TGI [2]

CSc1cc(C(C)(C)C)ccc1C(O)c1ccc(C(C)(C)C)cc1SC
27.1 µM: TGI [1]
25.8 µM: TGI [2]
27 µM: TGI [10]
29.9 µM: TGI [3]
19.6 µM: TGI [6]
23 µM: TGI [5]
21.6 µM: TGI [9]
39.3 µM: TGI [8]
31.4 µM: TGI [7]

O=C(c1ccc(Nc2nccc(NCCCCNc3ccnc4cc(Cl)ccc34)n2)cc1)N1CCCCC1
6.57 µM: TGI [6]
8.31 µM: TGI [1]
4.67 µM: TGI [8]
3.25 µM: TGI [5]
2.98 µM: TGI [7]
5.99 µM: TGI [9]
inactive: GI50 [1] 2.36 µM | GI50 [2] 2.94 µM | GI50 [4] 0.955 µM | GI50 [5] 1.52 µM | GI50 [9] 1.74 µM | GI50 [6] 1.31 µM | GI50 [10] 3.59 µM | GI50 [7] 0.475 µM | GI50 [8] 2.04 µM
7.89 µM: TGI [4]
13.7 µM: TGI [10]
11 µM: TGI [2]

CC(=O)[CH-]C(=O)c1ccccc1.CC(=O)[CH-]C(=O)c1ccccc1.CC(=O)[CH-]C(=O)c1ccccc1.[Br-].[Zr+4]
inactive: GI50 [1] 56.7 µM | GI50 [2] > 100 µM | GI50 [3] 20.2 µM | GI50 [5] > 100 µM | GI50 [9] 47.2 µM | GI50 [6] 48.3 µM | GI50 [7] 78.3 µM | GI50 [8] 55.3 µM
55.3 µM: TGI [3]
> 100 µM: TGI [1] | TGI [2] | TGI [5] | TGI [9] | TGI [6] | TGI [7] | TGI [8]

C=CCC1C(=O)CC2(C)C(CC=C)C(=O)CC12C (stereo not drawn)
> 100 µM: TGI [2] | TGI [3] | TGI [5] | TGI [9] | TGI [6] | TGI [10] | TGI [7] | TGI [8]

O=C(OCc1ccccc1)n1cccc1
> 100 µM: TGI [1] | TGI [2] | TGI [3] | TGI [5] | TGI [9] | TGI [6] | TGI [10] | TGI [7] | TGI [8]

N/C(=N/S(=O)(=O)c1cc(C(=O)Nc2ccc(F)cc2)c(Cl)cc1SCc1ccccc1)Nc1ccccc1O
inactive: GI50 [1] 2.12 µM | GI50 [2] 1.79 µM | GI50 [4] 2.08 µM | GI50 [5] 4.1 µM | GI50 [9] 1.55 µM | GI50 [6] 11 µM | GI50 [10] 16.3 µM | GI50 [7] 2.93 µM | GI50 [8] 2.14 µM
3.33 µM: TGI [2]
2.99 µM: TGI [9]
> 100 µM: TGI [5] | TGI [6]
8.29 µM: TGI [7]
4.33 µM: TGI [8]
5.69 µM: TGI [1]
30.9 µM: TGI [10]
4.61 µM: TGI [4]

CCc1cccc(NC(=O)c2cc(/C=C/c3ccccc3)[nH]c(=S)n2)c1
> 100 µM: TGI [1] | TGI [2] | TGI [3] | TGI [5] | TGI [9] | TGI [6] | TGI [10] | TGI [7] | TGI [8]

CCOP(=O)(OCC)C(NC(c1ccccc1)c1ccccc1)c1ccc(C(C)C)cc1 (stereo not drawn)
17.2 µM: TGI [2]
4.25 µM: TGI [9]
42.1 µM: TGI [6]
> 100 µM: TGI [7]
69.5 µM: TGI [1]
13.3 µM: TGI [4]
52 µM: TGI [8]
inactive: GI50 [1] 7.93 µM | GI50 [2] 4.8 µM | GI50 [4] 2.9 µM | GI50 [9] 1.71 µM | GI50 [6] 6.27 µM | GI50 [7] 5.91 µM | GI50 [8] 11.9 µM

N#CC1=C(c2ccccc2)OC2(N)OC(c3ccccc3)=C(C#N)C12C#N (stereo not drawn)
> 100 µM: TGI [1] | TGI [2] | TGI [3] | TGI [5] | TGI [9] | TGI [6] | TGI [7] | TGI [8]
